# Data reported in US10913727B2, “Modulators of the integrated stress pathway” (Calico Life Sciences LLC, priority 2016, dated 2021).
# System: HEK293T cells carrying the ATF4 luciferase reporter
# Assay: ATF4-Luc assay, in vitro model of Vanishing Cell White Matter Disease (VWMD)
# Format: cell-based
# Details: Homo sapiens, HEK-293T, 1 μg/mL tunicamycin, 7 hours, One Glo luminescence
# Outline: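 Reporter cells were stably generated by retroviral transduction and puromycin selection, then seeded at 30,000 cells/well. Next day, cells received 1 μg/mL tunicamycin with 200 nM test compound for 7 h, and luciferase luminescence was read with a one-step reagent. Values reported as EC50.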
smiles,measurement,value
"O=C(COc1ccc(Cl)c(F)c1)NC12CCC(NC(=O)c3ccno3)(CC1)C(O)C2 (stereo not shown) [Compound 215, N-{4-[2-(4-chloro-3-fluorophenoxy)acetamido]-2-hydroxybicyclo[2.2.2]octan-1-yl}-1,2-oxazole-5-carboxamide]",EC50,50 to 250 nM
